Data: PubChem BioAssay (NCI)
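Interpolation was linear, between the two tested concentrations surrounding the appropriate level; five concentrations were tested over 48 hours in 96-well plates. At the GI50, growth is halved. Definition used: TGI = concentration required for complete inhibition of growth.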

Columns and labels:
Experiment in all cases: growth of human tumour cells (NCI), 48 h
HCC-2998 colon = tested on: HCC-2998 colon
KM12 colon = tested on: KM12 colon
MALME-3M melanoma = tested on: MALME-3M melanoma
MOLT-4 leukemia = tested on: MOLT-4 leukemia
OVCAR-5 ovarian = tested on: OVCAR-5 ovarian
SF-539 CNS = tested on: SF-539 CNS
SW-620 colon = tested on: SW-620 colon
COLO 205 colon = tested on: COLO 205 colon
HCT-15 colon = tested on: HCT-15 colon
MCF7 breast = tested on: MCF7 breast

| SMILES | TGI (HCC-2998 colon) | TGI (KM12 colon) | TGI (MALME-3M melanoma) | TGI (MOLT-4 leukemia) | TGI (OVCAR-5 ovarian) | TGI (SF-539 CNS) | TGI (SW-620 colon) | TGI (COLO 205 colon) | TGI (HCT-15 colon) | GI50 (COLO 205 colon) | GI50 (HCC-2998 colon) | GI50 (HCT-15 colon) | GI50 (KM12 colon) | GI50 (MALME-3M melanoma) | GI50 (MCF7 breast) | GI50 (OVCAR-5 ovarian) | GI50 (SF-539 CNS) | GI50 (SW-620 colon) | TGI (MCF7 breast) | GI50 (MOLT-4 leukemia) |
| --- | --- | --- | --- | --- | --- | --- | --- | --- | --- | --- | --- | --- | --- | --- | --- | --- | --- | --- | --- | --- |
| O=C1N[C@@H]2CCCC[C@@H]2C12CCCCC2 | > 100 µM | > 100 µM | > 100 µM | > 100 µM | > 100 µM | > 100 µM | > 100 µM | – | – | – | – | – | – | – | – | – | – | – | – | – |
| CC(=O)Nc1ccc(C2CC(c3ccc([N+](=O)[O-])cc3)=Nc3ccccc3S2=O)cc1 (stereo not drawn) | 30.5 µM | 35.1 µM | – | 32.8 µM | > 100 µM | 70.2 µM | 62.4 µM | 44.9 µM | 50.2 µM | – | – | – | – | – | – | – | – | – | – | – |
| O=C1NC(=O)C2C(=O)NC(=O)C1C2Cc1ccco1 (stereo not drawn) | > 100 µM | > 100 µM | > 100 µM | > 100 µM | > 100 µM | > 100 µM | > 100 µM | > 100 µM | > 100 µM | – | – | – | – | – | – | – | – | – | – | – |
| CC1NOC(=O)C1N=Nc1ccc(Cl)cc1Cl (stereo not drawn) | 80.4 µM | 32.6 µM | 56.8 µM | 50.7 µM | > 100 µM | > 100 µM | 21.2 µM | 39 µM | 38.3 µM | – | – | – | – | – | – | – | – | – | – | – |
| CCOC(=O)c1ccc(N=Nc2ccc(N(CCC#N)CCC#N)cc2C)cc1 | > 100 µM | > 100 µM | > 100 µM | > 100 µM | > 100 µM | > 100 µM | > 100 µM | > 100 µM | > 100 µM | – | – | – | – | – | – | – | – | – | – | – |
| OCC1CC[N-]CC1.OCC1CC[N-]CC1.[Cl][Pt+2]([Cl])([Cl])[Cl] | – | 77.3 µM | – | – | 51.5 µM | – | – | – | – | 29.3 µM | 35.4 µM | 27.8 µM | 28.9 µM | 36.4 µM | 26.2 µM | 22.7 µM | 41.9 µM | 23 µM | – | – |
| COC(=O)C1=C(C(=O)OC)C2(c3ccccc3)OC1(c1ccccc1)c1cc3ccccc3cc12 | 3.7 µM | 3.97 µM | 3.19 µM | 3.64 µM | 3.53 µM | 3.03 µM | 3.51 µM | 4.18 µM | 3.88 µM | – | – | – | – | – | – | – | – | – | – | – |
| CCSCC1CC(O)(c2ccccc2)C(c2ccccc2)C(c2ccc(F)cc2)O1 (stereo not drawn) | 4.58 µM | 3.81 µM | – | 4.91 µM | 4.91 µM | 3.07 µM | 4.32 µM | 3.84 µM | 3.99 µM | 1.81 µM | 2.23 µM | 1.76 µM | 1.9 µM | – | 2.25 µM | 2.08 µM | 1.6 µM | 1.81 µM | 6.81 µM | 1.61 µM |
| Cc1ccc(NC(=O)c2cc(S(=O)(=O)Nc3nnc(-c4ccccc4)c(-c4ccccc4)n3)c(SCc3ccccc3)cc2Cl)cc1 | – | 50.7 µM | – | > 100 µM | 33.8 µM | – | 55.4 µM | 55.6 µM | 39.1 µM | 25 µM | – | 17.5 µM | 21.5 µM | – | 24.4 µM | 19.4 µM | – | 25.1 µM | > 100 µM | > 100 µM |
| Cc1ccc(S(=O)(=O)NCCCCC(N)C(=O)O)cc1 (stereo not drawn) | – | > 100 µM | > 100 µM | > 100 µM | > 100 µM | > 100 µM | > 100 µM | > 100 µM | > 100 µM | – | – | – | – | – | – | – | – | – | > 100 µM | – |
| COCCN(CCOC)c1nc(-c2ccccc2)nc2ccccc12 | – | 47.2 µM | 39.9 µM | > 100 µM | 46.3 µM | 52.9 µM | > 100 µM | > 100 µM | – | 28.2 µM | – | – | 18.6 µM | 20.2 µM | 20.6 µM | 21.9 µM | 24.3 µM | 33.9 µM | 55.7 µM | 28.3 µM |
| COc1ccc2nc(NC(=O)C(=O)CC(=O)c3ccc([N+](=O)[O-])cc3)sc2c1 | > 100 µM | > 100 µM | > 100 µM | > 100 µM | > 100 µM | > 100 µM | > 100 µM | > 100 µM | – | – | – | – | – | – | – | – | – | – | – | – |
| OC(c1ccccc1Br)(c1ccccc1Br)C(F)(F)F | 6.58 µM | 30.9 µM | 52.3 µM | 31.6 µM | 70 µM | > 100 µM | 36.2 µM | 33.1 µM | > 100 µM | – | – | – | – | – | – | – | – | – | – | – |
| Cc1cccc(Cn2cc(CO)c3cnccc32)c1 | > 100 µM | > 100 µM | > 100 µM | – | > 100 µM | > 100 µM | > 100 µM | > 100 µM | > 100 µM | > 100 µM | > 100 µM | > 100 µM | 85.6 µM | 64.6 µM | 51.3 µM | > 100 µM | > 100 µM | > 100 µM | > 100 µM | – |
| CCOC(=O)C1(C)CCC(C(C(=O)O)C(=O)O)CC1=O (stereo not drawn) | > 100 µM | > 100 µM | > 100 µM | > 100 µM | > 100 µM | > 100 µM | > 100 µM | > 100 µM | > 100 µM | – | – | – | – | – | – | – | – | – | – | – |
| N#CC1CC(c2ccccc2)Nc2cc(Cl)ccc2N1 (stereo not drawn) | > 100 µM | > 100 µM | > 100 µM | > 100 µM | > 100 µM | > 100 µM | > 100 µM | > 83.4 µM | > 100 µM | – | – | – | – | – | – | – | – | – | – | – |
| CC(=O)OCC(=O)[C@@]1(O)CC[C@H]2[C@@H]3C[C@H](C)C4=CC(=O)C=C[C@]4(C)[C@@]3(F)[C@@H](O)C[C@@]21C | > 100 µM | > 100 µM | > 100 µM | > 100 µM | > 100 µM | > 100 µM | > 100 µM | > 100 µM | > 100 µM | – | – | – | – | – | – | – | – | – | – | – |
| CCc1cccc(CC)c1NC(=O)/C(Cl)=C(/Cl)C(=O)O | > 75.9 µM | > 100 µM | 36.7 µM | > 86.9 µM | > 100 µM | 49.2 µM | 46.8 µM | 30.3 µM | 37.3 µM | – | – | – | – | – | – | – | – | – | – | – |
| COc1cc(/C=C/c2csnn2)cc(OC)c1OC | > 100 µM | > 100 µM | > 100 µM | > 100 µM | > 100 µM | > 100 µM | > 100 µM | – | > 100 µM | – | – | – | – | – | – | – | – | – | – | – |
| N#Cc1ccc(Sc2nc3ccccc3[nH]2)cc1 | – | > 100 µM | > 100 µM | > 100 µM | > 100 µM | > 100 µM | > 100 µM | > 100 µM | – | – | – | – | – | – | – | – | – | – | – | – |
| Nc1nc(=S)c2c(ncn2CCO)[nH]1 | > 100 µM | > 100 µM | > 100 µM | – | > 100 µM | > 100 µM | > 100 µM | > 100 µM | > 100 µM | – | – | – | – | – | – | – | – | – | – | – |
